Data as given in patent publication US10801879B2, “Magnesium zinc oxide nanostructure modified biosensor and monitoring of response of cell population to an agent using the same” (Rutgers, The State University of New Jersey, priority 2015, dated 2020).
Converted amounts (≈) assume the structure as drawn.

Columns and labels:
S. cerevisiae (yeast) [1] = experiment: MZOnano-QCM monitoring of antifungal drug effects on yeast; assay type: cell-based; settings: drug introduced at 330 min after initial growth seeding
From the text: (§1) The result using various embodiments in this patent document accurately detects both drug effects in a rapid manner.
(§2) This is due to the fact that the spectroscopic method relies on light absorption by the suspended cells, and dead yeast cells remain in suspension, thus contributing to the absorption.

S. cerevisiae (yeast) [2] = experiment: Spectrophotometry (OD600) monitoring of antifungal drug effects on yeast; assay type: cell-based; settings: patent calls the identification incorrect
From the text: as §1, §2

[3] = tested on: VP16-sensitive ALL cell line (CEM); experiment: MZOnano-QCM 48-hour monitoring of drug sensitive ALL (CEM) cells; assay type: cell-based
Protocol: (§3) The third example uses the drug VP16 (also known as etoposide, an anticancer agent), VP16-sensitive ALL cell line (CEM) and its VP16-resistant derivative cell line (CEM-V1) as a model for monitoring the effect of anticancer agents on the growth of cancer cells using the MZOnano-QCM sensor device, where the Mg composition x in MZO is 0.03.
For all of the experiments in this example, an initial seeding density of 4×10^5 cells in 2 mL of medium is used, the leukemia cell growth using the MZOnano-QCM is monitored dynamically for 48 hours. The drug (VP16) was introduced into the cell culture after 4 hours after the initial seeding. With reference to FIG. 7, the time-dependent frequency shift of the sensor for the entire 48-hour monitoring period of the drug sensitive CEM cells is shown. In the no-drug case, the frequency shift increases exponentially from 0-40 hours (indicating exponential cell accumulation on the sensing area) and then the frequency shift rate decreases showing saturation of the cell growth. In the case where the drug is introduced into the cell culture in the device, it is observed that the cells continue to grow after the drug has been introduced (4 hours after initial seeding), however, it is seen that the drug has taken effect 16 hours after the drug has been introduced.

[4] = tested on: VP16-resistant derivative cell line (CEM-V1); experiment: MZOnano-QCM 48-hour monitoring of drug resistant ALL (CEM-V1) cells; assay type: cell-based
From the text: as §3
The same experiment can be repeated on drug resistant CEM leukemia cells (CEM-V1) using both the MZOnano-QCM sensor and the viability analyzer, and the monitoring can be conducted for 48 hours. […] The drug was added into the cell culture at 4 hours after the initial seeding of 4×10^5 cells. […] The various configurations used in the example in FIG. 11 are the same as those described with respect to FIG. 8, and the various configurations used in the example in FIG. 12 are the same as those described with respect to FIG. 9.

S. epidermidis = experiment: Standard broth dilution assay (MIC), S. epidermidis; assay type: cell-based; settings: Staphylococcus epidermidis
P. aeruginosa = settings: FIG. 15(b)
Protocol: The sensor was placed inside an incubator at 37° C. while automatically measuring the acoustic spectrum every 15 minutes for 3 hours.

[5] = tested on: antibiotic-sensitive E. coli; experiment: MZOnano-QCM detection of antibiotic effects on sensitive E. coli; assay type: cell-based; settings: ampicillin-sensitive cells, 256 μg/mL
Protocol: (§4) The first example illustrates the application of a magnesium zinc oxide (MZO) nanostructure-modified quartz crystal microbalance (MZOnano-QCM) biosensor disclosed in this document with reference to FIGS. 1A and 1B to dynamically monitor antibiotic effects on sensitive and resistant E. coli cells. MZO-nanostructures were grown on a standard QCM top-electrode using metal-organic chemical-vapor deposition. ZnO and MZO nanostructured-films are chosen for their multi-functionality and biocompatibility. Their surface-wettability and morphology can be controlled, offering high-sensitivity to various biological/biochemical species. MZO can withstand a larger pH range than ZnO does. Combining advantages of MZO nanostructures with the dynamic impedance spectrum capability of QCM makes MZOnano-QCM a highly-sensitive dynamic biosensor well-suited for AMR detection. The growth of E. coli on ZnO and MZO nanostructures was determined by 90-minute incubation.
(§5) FIGS. 4A-4D show the detection of antibiotic effects on E. coli using regular QCM, ZnOnano-QCM and MZOnano-QCM. The regular QCM failed detection due to low sensitivity while both ZnOnano- and MZOnano-QCM enable accurate detection of bacterial count during active growth though frequency shifts (Δf). The MZOnano-QCM offered four-fold higher sensitivity than ZnOnano-QCM. […]

resistant E. coli = experiment: MZOnano-QCM detection of antimicrobial resistance of resistant E. coli; assay type: cell-based; settings: ampicillin-resistant cells, 256 μg/mL
Protocol: as §4, §5

## C[C@@H]1[C@H](O)[C@@H](C)/C=C/C=C/C=C/C=C/C=C/C=C/C=C/[C@H](O[C@@H]2O[C@H](C)[C@@H](O)[C@H](N)[C@@H]2O)C[C@@H]2O[C@](O)(C[C@@H](O)C[C@@H](O)[C@H](O)CC[C@@H](O)C[C@@H](O)CC(=O)O[C@H]1C)C[C@H](O)[C@H]2C(=O)O [amphotericin]
S. cerevisiae (yeast) [1]
  drug effect on yeast detected by sensor: cell-killing effects
S. cerevisiae (yeast) [2]
  drug effect on yeast as identified by OD600 method: fungi-static

## COc1cc([C@@H]2c3cc4c(cc3[C@@H](O[C@@H]3O[C@@H]5CO[C@@H](C)O[C@H]5[C@H](O)[C@H]3O)[C@H]3COC(=O)[C@H]23)OCO4)cc(OC)c1O [VP16, etoposide]
[3]; 20 hours to 48 hours
  cell response (frequency shift) after drug took effect: cells start to die (or stop to proliferate)
[3]; drug introduced 4 hours after initial seeding of 4×10^5 cells
  time after drug introduction at which drug has taken effect: 16 h
[4]; 48 hours monitoring
  cell response (frequency shift trend) in the presence of the drug: continuous cell growth
[4]; drug added 4 hours after initial seeding of 4×10^5 cells
  time after addition of drug at which frequency shift started to decrease compared to no-drug control: ~15 h

## Clc1ccc(COC(Cn2ccnc2)c2ccc(Cl)cc2Cl)c(Cl)c1 (stereo not drawn) [miconazole]
S. cerevisiae (yeast) [1]
  drug effect on yeast detected by sensor: growth inhibition effects

## O=C(O)c1cn(C2CC2)c2cc(N3CCNCC3)c(F)cc2c1=O [ciprofloxacin]
S. epidermidis
  MIC: 0.05 µg/mL (≈ 0.151 µM)
P. aeruginosa
  motional resistance in presence or absence of drug: dramatically different

## CC1(C)S[C@@H]2[C@H](NC(=O)[C@H](N)c3ccccc3)C(=O)N2[C@H]1C(=O)O [ampicillin]
[5]
  time within which Δf declined upon treatment: ≤ 10 min
  time within which Δf stopped increasing upon treatment: ≤ 5 min
Resistant E. coli
  Δf response upon treatment: continued increasing
